In patent publication US20260216239A1 (Arizona Board of Regents on Behalf of the University of …, priority 2020, published 2026):
“Also recorded” adds a separate entry of the source.

What was measured:
Atheris nitschei venom = conditions: previously characterized by this laboratory; cited from earlier work
[1] = tested on: Oxyuranus microlepidotus venom; test: Thrombelastography in human plasma of venom procoagulant activity after isolated exposure of venom to compounds; type: biochemical; conditions: venom 1 μg/ml in plasma; for procoagulant activity of venom: venom exposed ≥5 min in PBS to 100 μM CORM-2, 100 μM RuCl3 or both
Method: Thrombelastographic analyses. The volumes of subsequently described plasmatic and other additives summed to a final volume of 360 μl. Samples were composed of 320 μl of plasma; 16.4 μl of PBS, 20 μl of 200 mM CaCl2), and 3.6 μl of PBS or venom mixture, which were pipetted into a disposable cup in a Thrombelastograph® hemostasis system (Model 5000, Haemonetics Inc., Braintree, MA, USA) at 37° C., and then rapidly mixed by moving the cup up against and then away from the plastic pin five times. The following viscoelastic parameters described previously (see, Nielsen V G (2019) J Thromb Thrombolysis 47, 73-79; Gessner G, et al., (2017) Eur J Pharmacol 815, 33-41; Nielsen V G, Wagner M T, Frank N (2020) Int J Mol Sci 21, 2082; Lazić D, Arsenijević A, Puchta R, Bugarčić ŽD, Rilak A (2016) Dalton Trans 45, 4633; Hanif M, et al., (2017) ChemPlusChem 82, 841-847) were measured: time to maximum rate of thrombus generation (TMRTG): this is the time interval (minutes) observed prior to maximum speed of clot growth; maximum rate of thrombus generation (MRTG): this is the maximum velocity of clot growth observed (dynes/cm^2/second); and total thrombus generation (TTG, dynes/cm^2), the final viscoelastic resistance observed after clot formation.
O. microlepidotus. This venom was exposed to 0 or 100 μM CORM-2 in the presence of 0 or 100 μM RuCl3 in PBS for at least 5 minutes at room temperature prior to placement into plasma followed immediately with commencement of thrombelastographic analysis. The final concentration of this venom in plasma was 1 μg/ml.
Given the aforementioned, the experimental conditions utilized were: 1) V condition—venom in PBS; 2) Ru(II) condition—venom exposed to CORM-2; 3) Ru(III) condition—venom exposed to RuCl3; 4) Ru(II+III) condition—venom exposed to CORM-2 and RuCl3 simultaneously. After the 5 minute period at room temperature, 3.6 μl of one of these solutions was added to the plasma sample in the plastic thrombelastograph cup.
The volumes of subsequently described plasmatic and other additives summed to a final volume of 360 μl. Samples were composed of 320 μl of plasma; 16.4 μl of PBS, 20 μl of 200 mM CaCl2), and 3.6 μl of PBS or venom mixture, which were pipetted into a disposable cup in a Thrombelastograph® hemostasis system (Model 5000, Haemonetics Inc., Braintree, MA, USA) at 37° C., and then rapidly mixed by moving the cup up against and then away from the plastic pin five times. The following viscoelastic parameters described previously (see, Nielsen, V. G. J Thromb Thrombolysis 2019, 47, 73-79; Gessner, G.; et al., Eur J Pharmacol 2017, 815, 33-41; Nielsen, V. G.; Wagner, M. T.; Frank, N. Int J Mol Sci 2020, 21, 2082; Lazid, D.; et al., Dalton Trans 2016, 45, 4633; Hanif, M.; et al., ChemPlusChem 2017, 82, 841-847) were measured: time to maximum rate of thrombus generation (TMRTG): this is the time interval (minutes) observed prior to maximum speed of clot growth; maximum rate of thrombus generation (MRTG): this is the maximum velocity of clot growth observed (dynes/cm2/second); and total thrombus generation (TTG, dynes/cm2), the final viscoelastic resistance observed after clot formation. […]

[2] = 100 μM CORM-2, 100 μM RuCl3 or both

| Structure (SMILES) | CORM-2/ iRM Inhibition (Atheris nitschei venom) | maximum rate of thrombus generation (MRTG) [1, 2] | time to maximum rate of thrombus generation (TMRTG) [1, 2] | total thrombus generation (TTG) [1, 2] | procoagulant activity of venom [1] |
| --- | --- | --- | --- | --- | --- |
| [C-]#[O+].[C-]#[O+].[C-]#[O+].[C-]#[O+].[C-]#[O+].[C-]#[O+].[Cl][Ru][Cl].[Cl][Ru][Cl] [CORM-2, tricarbonyldichlororuthenium(II) dimer] | Yes | decrease | prolonged; also recorded: significant increase | decrease | significant decrease; also recorded: procoagulant activity inhibition |
| [Cl][Ru]([Cl])[Cl] [RuCl3, ruthenium(III) chloride] | – | – | – | – | did not significantly affect |
